# Calls of active or inactive are those of the source. The rule behind the calls is not given here.
# Experiments:
# [1] = target: Protein-tyrosine kinase 2-beta (Homo sapiens, UniProt Q14289); assay: Binding assay (PTK2B)
# [2] = system: Tyrosine-protein kinase ABL1 (Homo sapiens), P00519 [E255K]
# [3] = system: Tyrosine-protein kinase ABL1 (Homo sapiens), P00519 [T315I]
# [4] = target: Activin receptor type-2A (Homo sapiens) (UniProt P27037)
# [5] = target: Cyclin-dependent kinase 4 (Homo sapiens) (UniProt P11802)
# [6] = target: Cyclin-dependent kinase 4 (Homo sapiens) (UniProt P11802); remark: listed apart in the source
# [7] = target: Cyclin-dependent kinase 7 (Homo sapiens) (UniProt P50613)
# [8] = target: Cyclin-dependent kinase 9 (Homo sapiens) (UniProt P50750)
# [9] = target: Cyclin-dependent kinase-like 5 (Homo sapiens) (UniProt O76039)
# [10] = target: Macrophage colony-stimulating factor 1 receptor (Homo sapiens) (UniProt P07333)
# [11] = target: Megakaryocyte-associated tyrosine-protein kinase (Homo sapiens) (UniProt P42679)
# [12] = target: Serine/threonine-protein kinase DCLK1 (Homo sapiens) (UniProt O15075)
# [13] = system: Epidermal growth factor receptor (Homo sapiens), P00533 [UNDEFINED MUTATION]
# [14] = target: Ephrin type-A receptor 3 (Homo sapiens) (UniProt P29320)
# [15] = target: Ephrin type-B receptor 3 (Homo sapiens) (UniProt P54753)
# [16] = target: Tyrosine-protein kinase Fgr (Homo sapiens) (UniProt P09769)
# [17] = target: Receptor-type tyrosine-protein kinase FLT3 (Homo sapiens) (UniProt P36888)
# [18] = system: Mast/stem cell growth factor receptor Kit (Homo sapiens), P10721 [V559D,V654A]
# [19] = target: LIM domain kinase 1 (Homo sapiens) (UniProt P53667)
# [20] = system: Leucine-rich repeat serine/threonine-protein kinase 2 (Homo sapiens), Q5S007 [G2019S]
# [21] = target: Hepatocyte growth factor receptor (Homo sapiens) (UniProt P08581)
# [22] = target: T1, Serine/threonine-protein kinase 3 (Homo sapiens) (UniProt Q13188)
# T1 sequence (whole entry): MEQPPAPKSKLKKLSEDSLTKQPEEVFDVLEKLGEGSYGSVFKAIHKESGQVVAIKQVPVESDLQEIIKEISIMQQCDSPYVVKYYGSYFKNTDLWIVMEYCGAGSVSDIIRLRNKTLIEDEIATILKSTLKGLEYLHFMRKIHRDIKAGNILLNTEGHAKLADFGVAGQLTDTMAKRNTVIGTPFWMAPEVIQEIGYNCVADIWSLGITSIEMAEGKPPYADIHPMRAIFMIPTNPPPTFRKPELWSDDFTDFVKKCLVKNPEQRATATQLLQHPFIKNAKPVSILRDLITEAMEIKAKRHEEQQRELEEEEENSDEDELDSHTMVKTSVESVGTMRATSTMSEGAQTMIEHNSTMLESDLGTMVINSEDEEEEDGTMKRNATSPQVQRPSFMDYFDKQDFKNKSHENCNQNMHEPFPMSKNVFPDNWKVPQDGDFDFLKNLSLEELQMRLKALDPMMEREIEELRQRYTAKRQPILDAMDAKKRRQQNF
# [23] = target: Serine/threonine-protein kinase NLK (Homo sapiens) (UniProt Q9UBE8)
# [24] = target: Serine/threonine-protein kinase PAK 5 (Homo sapiens) (UniProt Q9P286)
# [25] = target: Phosphatidylinositol 4-phosphate 3-kinase C2 domain-containing subunit beta (Homo sapiens) (UniProt O00750)
# [26] = system: Phosphatidylinositol 4,5-bisphosphate 3-kinase catalytic subunit alpha isoform (Homo sapiens), P42336 [C420R]
# [27] = system: Phosphatidylinositol 4,5-bisphosphate 3-kinase catalytic subunit alpha isoform (Homo sapiens), P42336 [H1047Y]
# [28] = target: Serine/threonine-protein kinase pim-3 (Homo sapiens) (UniProt Q86V86)
# [29] = target: Serine/threonine-protein kinase D1 (Homo sapiens) (UniProt Q15139)
# [30] = target: Serine/threonine-protein kinase PRP4 homolog (Homo sapiens) (UniProt Q13523)
# [31] = target: Serine/threonine-protein kinase SIK3 (Homo sapiens) (UniProt Q9Y2K2)
# [32] = target: Serine/threonine-protein kinase 35 (Homo sapiens) (UniProt Q8TDR2)
# [33] = target: Serine/threonine-protein kinase tousled-like 2 (Homo sapiens) (UniProt Q86UE8)
# [34] = target: Tyrosine-protein kinase TXK (Homo sapiens) (UniProt P42681)
# [35] = target: Serine/threonine-protein kinase ULK3 (Homo sapiens) (UniProt Q6PHR2)
# [36] = target: Serine/threonine-protein kinase WNK3 (Homo sapiens) (UniProt Q9BYP7)
# [37] = target: Serine/threonine-protein kinase WNK4 (Homo sapiens) (UniProt Q96J92)
# [38] = target: Histamine H1 receptor (Homo sapiens) (UniProt P35367); conditions: Compound concentration 10.0 uM
# [39] = Compound concentration 100.0 nM
# [40] = Compound concentration 1000.0 nM
# Cyclin-dependent kinase 4 (Homo sapiens), sequence (P11802 whole entry): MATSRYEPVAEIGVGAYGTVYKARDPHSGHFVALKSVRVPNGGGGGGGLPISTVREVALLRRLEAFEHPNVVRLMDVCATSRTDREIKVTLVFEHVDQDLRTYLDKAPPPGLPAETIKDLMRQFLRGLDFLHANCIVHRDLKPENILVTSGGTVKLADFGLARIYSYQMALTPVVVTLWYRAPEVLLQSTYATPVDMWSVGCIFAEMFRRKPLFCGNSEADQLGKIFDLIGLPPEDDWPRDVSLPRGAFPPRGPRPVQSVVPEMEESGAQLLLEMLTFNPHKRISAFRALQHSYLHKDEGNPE
# Ephrin type-B receptor 3 (Homo sapiens), sequence (P54753 whole entry): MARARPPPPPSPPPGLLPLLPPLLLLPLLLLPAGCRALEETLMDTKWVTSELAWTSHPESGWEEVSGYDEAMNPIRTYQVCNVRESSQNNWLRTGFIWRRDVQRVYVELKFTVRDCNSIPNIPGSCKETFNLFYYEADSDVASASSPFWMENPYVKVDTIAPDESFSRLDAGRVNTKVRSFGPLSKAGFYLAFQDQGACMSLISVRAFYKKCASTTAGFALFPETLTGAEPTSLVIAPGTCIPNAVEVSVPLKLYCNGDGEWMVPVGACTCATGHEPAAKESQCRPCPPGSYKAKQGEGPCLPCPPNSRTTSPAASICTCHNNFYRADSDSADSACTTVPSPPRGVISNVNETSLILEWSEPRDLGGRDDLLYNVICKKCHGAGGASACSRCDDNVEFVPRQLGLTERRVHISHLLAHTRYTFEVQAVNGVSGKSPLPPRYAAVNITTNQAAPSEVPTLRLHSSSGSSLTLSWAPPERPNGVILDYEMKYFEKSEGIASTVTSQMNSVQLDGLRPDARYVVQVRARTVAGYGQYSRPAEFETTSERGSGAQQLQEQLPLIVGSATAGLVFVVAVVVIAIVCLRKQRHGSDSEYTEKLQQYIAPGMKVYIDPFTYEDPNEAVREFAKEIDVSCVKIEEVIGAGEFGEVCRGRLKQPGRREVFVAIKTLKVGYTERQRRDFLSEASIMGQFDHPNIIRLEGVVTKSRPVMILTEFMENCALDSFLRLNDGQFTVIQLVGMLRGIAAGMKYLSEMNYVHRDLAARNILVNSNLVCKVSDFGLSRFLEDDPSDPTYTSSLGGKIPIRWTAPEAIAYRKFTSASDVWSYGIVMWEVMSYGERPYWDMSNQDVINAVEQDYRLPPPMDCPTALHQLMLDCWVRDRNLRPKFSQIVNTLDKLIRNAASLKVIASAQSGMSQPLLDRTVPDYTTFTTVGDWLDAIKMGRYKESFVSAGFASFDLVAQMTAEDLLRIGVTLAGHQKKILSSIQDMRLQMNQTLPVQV
# Epidermal growth factor receptor (Homo sapiens), P00533 [UNDEFINED MUTATION], sequence (P00533 whole entry, looked up, change not shown): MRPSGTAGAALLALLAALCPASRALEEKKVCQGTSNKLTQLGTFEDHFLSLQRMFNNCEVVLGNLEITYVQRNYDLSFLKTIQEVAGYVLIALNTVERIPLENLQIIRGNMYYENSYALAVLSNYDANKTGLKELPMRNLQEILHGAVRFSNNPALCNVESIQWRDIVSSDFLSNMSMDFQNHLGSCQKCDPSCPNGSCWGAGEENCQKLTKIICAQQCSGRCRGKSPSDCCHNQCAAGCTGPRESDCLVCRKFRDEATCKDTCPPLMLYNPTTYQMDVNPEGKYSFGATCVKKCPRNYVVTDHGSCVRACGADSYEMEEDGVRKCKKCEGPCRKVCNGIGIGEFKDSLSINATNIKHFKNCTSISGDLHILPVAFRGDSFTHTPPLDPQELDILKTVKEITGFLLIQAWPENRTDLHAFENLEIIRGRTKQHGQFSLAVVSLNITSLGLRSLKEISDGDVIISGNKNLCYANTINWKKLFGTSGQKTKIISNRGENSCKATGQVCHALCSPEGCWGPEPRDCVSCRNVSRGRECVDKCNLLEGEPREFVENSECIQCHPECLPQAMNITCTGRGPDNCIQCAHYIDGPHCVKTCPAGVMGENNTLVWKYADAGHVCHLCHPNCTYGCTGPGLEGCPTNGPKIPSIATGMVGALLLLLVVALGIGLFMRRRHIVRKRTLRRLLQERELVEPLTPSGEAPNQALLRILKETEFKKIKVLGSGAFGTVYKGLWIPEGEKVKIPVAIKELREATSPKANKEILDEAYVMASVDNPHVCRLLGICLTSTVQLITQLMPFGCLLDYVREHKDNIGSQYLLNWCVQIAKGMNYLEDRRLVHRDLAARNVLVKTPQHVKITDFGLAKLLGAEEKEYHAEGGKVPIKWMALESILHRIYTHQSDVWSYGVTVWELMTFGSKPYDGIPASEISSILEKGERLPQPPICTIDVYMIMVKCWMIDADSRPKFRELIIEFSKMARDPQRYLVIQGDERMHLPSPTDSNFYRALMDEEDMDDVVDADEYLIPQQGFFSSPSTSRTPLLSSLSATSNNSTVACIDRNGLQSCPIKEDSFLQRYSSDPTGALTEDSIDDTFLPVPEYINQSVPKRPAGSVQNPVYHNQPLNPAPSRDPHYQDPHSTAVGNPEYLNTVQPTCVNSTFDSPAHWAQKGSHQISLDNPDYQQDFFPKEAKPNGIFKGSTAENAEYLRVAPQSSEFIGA
# Macrophage colony-stimulating factor 1 receptor (Homo sapiens), sequence (P07333 whole entry): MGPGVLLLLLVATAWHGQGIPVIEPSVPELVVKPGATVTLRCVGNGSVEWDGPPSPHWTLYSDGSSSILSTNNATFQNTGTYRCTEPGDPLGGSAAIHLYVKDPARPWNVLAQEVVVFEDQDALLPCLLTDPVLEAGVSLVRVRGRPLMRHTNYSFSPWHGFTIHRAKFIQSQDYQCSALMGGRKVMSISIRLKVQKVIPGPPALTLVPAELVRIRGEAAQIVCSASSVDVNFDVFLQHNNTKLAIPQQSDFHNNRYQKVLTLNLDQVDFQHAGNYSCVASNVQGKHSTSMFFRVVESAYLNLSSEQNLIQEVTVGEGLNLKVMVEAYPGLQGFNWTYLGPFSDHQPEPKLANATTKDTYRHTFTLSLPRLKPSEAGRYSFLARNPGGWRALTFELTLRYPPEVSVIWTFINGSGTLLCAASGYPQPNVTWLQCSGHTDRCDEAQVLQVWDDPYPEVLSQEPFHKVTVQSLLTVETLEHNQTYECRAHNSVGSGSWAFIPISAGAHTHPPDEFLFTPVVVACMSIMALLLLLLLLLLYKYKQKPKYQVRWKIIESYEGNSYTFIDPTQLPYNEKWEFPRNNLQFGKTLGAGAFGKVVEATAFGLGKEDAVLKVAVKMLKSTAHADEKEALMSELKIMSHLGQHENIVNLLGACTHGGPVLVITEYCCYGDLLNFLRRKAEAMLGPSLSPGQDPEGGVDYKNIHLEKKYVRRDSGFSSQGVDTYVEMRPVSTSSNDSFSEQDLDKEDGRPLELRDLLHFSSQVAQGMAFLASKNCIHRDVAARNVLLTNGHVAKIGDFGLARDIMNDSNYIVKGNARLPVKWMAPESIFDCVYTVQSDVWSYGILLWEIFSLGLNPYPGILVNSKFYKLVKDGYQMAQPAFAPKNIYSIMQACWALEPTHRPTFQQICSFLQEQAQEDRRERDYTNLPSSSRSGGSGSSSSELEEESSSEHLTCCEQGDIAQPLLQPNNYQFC
# Phosphatidylinositol 4,5-bisphosphate 3-kinase catalytic subunit alpha isoform (Homo sapiens), P42336 [C420R], sequence (P42336 whole entry C420R, canonical isoform): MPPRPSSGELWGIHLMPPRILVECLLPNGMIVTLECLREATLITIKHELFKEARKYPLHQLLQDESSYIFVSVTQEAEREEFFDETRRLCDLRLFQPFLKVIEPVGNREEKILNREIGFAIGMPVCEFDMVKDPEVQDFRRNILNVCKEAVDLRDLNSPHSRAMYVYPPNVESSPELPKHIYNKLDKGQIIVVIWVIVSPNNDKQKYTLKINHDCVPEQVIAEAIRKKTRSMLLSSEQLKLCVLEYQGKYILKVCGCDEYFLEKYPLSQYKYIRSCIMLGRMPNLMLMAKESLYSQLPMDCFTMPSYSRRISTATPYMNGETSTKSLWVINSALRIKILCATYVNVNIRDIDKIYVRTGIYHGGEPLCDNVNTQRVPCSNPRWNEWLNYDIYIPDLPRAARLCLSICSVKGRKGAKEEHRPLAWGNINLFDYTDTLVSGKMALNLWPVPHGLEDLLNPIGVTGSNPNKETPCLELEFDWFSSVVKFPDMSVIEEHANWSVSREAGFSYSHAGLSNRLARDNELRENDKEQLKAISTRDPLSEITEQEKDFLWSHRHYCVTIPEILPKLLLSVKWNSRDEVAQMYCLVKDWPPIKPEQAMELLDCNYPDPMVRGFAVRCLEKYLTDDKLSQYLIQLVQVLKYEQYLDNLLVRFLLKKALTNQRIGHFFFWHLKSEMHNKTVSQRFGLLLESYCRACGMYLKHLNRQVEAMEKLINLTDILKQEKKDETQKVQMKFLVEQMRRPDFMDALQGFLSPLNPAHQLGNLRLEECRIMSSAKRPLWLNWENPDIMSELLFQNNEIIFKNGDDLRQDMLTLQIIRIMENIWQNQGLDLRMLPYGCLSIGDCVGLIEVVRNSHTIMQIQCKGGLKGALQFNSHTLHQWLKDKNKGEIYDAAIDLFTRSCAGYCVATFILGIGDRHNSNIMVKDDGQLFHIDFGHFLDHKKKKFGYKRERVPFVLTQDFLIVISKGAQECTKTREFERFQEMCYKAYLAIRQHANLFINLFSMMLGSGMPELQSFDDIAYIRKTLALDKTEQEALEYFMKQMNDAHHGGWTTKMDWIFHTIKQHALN
# Megakaryocyte-associated tyrosine-protein kinase (Homo sapiens), sequence (P42679 whole entry): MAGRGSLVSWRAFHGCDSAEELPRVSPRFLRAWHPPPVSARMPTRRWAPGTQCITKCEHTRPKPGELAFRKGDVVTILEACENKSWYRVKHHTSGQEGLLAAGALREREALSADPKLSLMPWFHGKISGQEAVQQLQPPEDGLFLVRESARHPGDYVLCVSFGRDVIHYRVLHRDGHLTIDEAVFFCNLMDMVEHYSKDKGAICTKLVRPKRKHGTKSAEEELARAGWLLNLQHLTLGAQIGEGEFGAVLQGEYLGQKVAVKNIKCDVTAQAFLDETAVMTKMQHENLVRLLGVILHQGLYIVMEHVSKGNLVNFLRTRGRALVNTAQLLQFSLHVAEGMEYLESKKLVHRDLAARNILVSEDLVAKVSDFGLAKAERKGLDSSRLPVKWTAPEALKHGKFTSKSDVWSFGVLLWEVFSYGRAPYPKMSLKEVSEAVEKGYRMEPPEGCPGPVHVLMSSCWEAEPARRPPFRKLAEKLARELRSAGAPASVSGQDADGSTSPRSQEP
structure (smiles),measurement,setting,value
CNC(=O)c1ccc(Nc2ncc(C(F)(F)F)c(NCc3nccnc3N(C)S(C)(=O)=O)n2)cc1 [DEFACTINIB],IC50,[1],0.2 nM (active)
same,residual activity,[2]; [39],100%
same,residual activity,[3]; [39],93%
same,residual activity,[4]; [39],90%
same,residual activity,[5]; [39],100%
same,residual activity,[6]; [39],100%
same,residual activity,[7]; [39],59%
same,residual activity,[8]; [39],86%
same,residual activity,[9]; [39],100%
same,residual activity,[10]; [39],100%
same,residual activity,[11]; [39],37%
same,residual activity,[12]; [39],99%
same,residual activity,[13]; [39],93%
same,residual activity,[14]; [39],82%
same,residual activity,[15]; [39],87%
same,residual activity,[16]; [39],81%
same,residual activity,[17]; [39],46%
same,residual activity,[18]; [39],100%
same,residual activity,[19]; [39],100%
same,residual activity,[20]; [39],65%
same,residual activity,[21]; [39],66%
same,residual activity,[22]; [39],68%
same,residual activity,[23]; [39],100%
same,residual activity,[24]; [39],62%
same,residual activity,[25]; [39],87%
same,residual activity,[26]; [39],100%
same,residual activity,[27]; [39],100%
same,residual activity,[28]; [39],82%
same,residual activity,[29]; [39],100%
same,residual activity,[30]; [39],69%
same,residual activity,[31]; [39],82%
same,residual activity,[32]; [39],100%
same,residual activity,[33]; [39],90%
same,residual activity,[34]; [39],98%
same,residual activity,[35]; [39],75%
same,residual activity,[36]; [39],100%
same,residual activity,[37]; [39],81%
same,inhibition,[38],-3.38%
CN(c1ccnc(CNc2nc(Nc3ccc4c(c3)CC(=O)N4)ncc2C(F)(F)F)n1)S(C)(=O)=O [PF-00911705],IC50,[1],721 nM (not active)
same,residual activity,[2]; [40],34%
same,residual activity,[3]; [40],36%
same,residual activity,[4]; [40],100%
same,residual activity,[5]; [40],100%
same,residual activity,[6]; [40],93%
same,residual activity,[7]; [40],3.5%
same,residual activity,[8]; [40],84%
same,residual activity,[9]; [40],87%
same,residual activity,[10]; [40],100%
same,residual activity,[11]; [40],65%
same,residual activity,[12]; [40],57%
same,residual activity,[13]; [40],83%
same,residual activity,[14]; [40],72%
same,residual activity,[15]; [40],95%
same,residual activity,[16]; [40],58%
same,residual activity,[17]; [40],23%
same,residual activity,[18]; [40],67%
same,residual activity,[19]; [40],97%
same,residual activity,[20]; [40],7.3%
same,residual activity,[21]; [40],14%
same,residual activity,[22]; [40],46%
same,residual activity,[23]; [40],98%
same,residual activity,[24]; [40],76%
same,residual activity,[25]; [40],79%
same,residual activity,[26]; [40],91%
same,residual activity,[27]; [40],85%
same,residual activity,[28]; [40],77%
same,residual activity,[29]; [40],100%
same,residual activity,[30]; [40],23%
same,residual activity,[31]; [40],82%
same,residual activity,[32]; [40],86%
same,residual activity,[33]; [40],100%
same,residual activity,[34]; [40],91%
same,residual activity,[35]; [40],25%
same,residual activity,[36]; [40],79%
same,residual activity,[37]; [40],0%
same,inhibition,[38],21.4%
